Reference: ChEMBL document CHEMBL1130117, “Structure-activity relationships for the antileishmanial and antitrypanosomal activities of 1'-substituted 9-anilinoacridines” (J Med Chem, 1997)

What was measured:
[1] = Lipophilicity index (substitution method); assay type: physicochemical; conditions: octanol/water
Leishmania major = assay: Concentration required to reduce incorporation of [3H]TdR in drug-treated cultures of intracellular Leishmania major to 50% of controls; assay type: functional, organism-based
Jurkat = assay: Concentration required to reduce the growth of human Jurkat cells to 50% of control cultures; assay type: functional, cell-based
Leishmania donovani = assay: Concentration required to reduce the number of macrophages infected with Leishmania donovani amastigotes to 50% of untreated controls.; assay type: functional; conditions: read-out: ED50 (the source's name)
Trypanosoma brucei = assay: Concentration required to inhibit the growth of extracellular Trypanosoma brucei trypomastigotes to 50% of untreated controls.; assay type: functional; conditions: read-out: ED50 (the source's name)
Trypanosoma cruzi = assay: Concentration required to reduce the number of macrophages infected with Trypanosoma cruzi amastigotes to 50% of untreated controls.; assay type: functional; conditions: read-out: ED50 (the source's name)
[2] = relative lipophilicity determined where possible by computation by the fragment constant method; assay type: physicochemical; conditions: octanol/water

Row | SMILES | Index [1] | IC50 (Leishmania major) | IC50 (Jurkat) | EC50 (Leishmania donovani) | EC50 (Trypanosoma brucei) | EC50 (Trypanosoma cruzi) | Liphophilicity [2]
1 | Nc1ccc(Nc2c3ccccc3nc3ccccc23)cc1 | -1.23 | 2100 nM | – | – | – | – | –
2 | CN(C)Cc1ccc(Nc2c3ccccc3nc3ccccc23)cc1 | -0.15 | 1000 nM | – | – | – | – | –
3 | COc1cc(NS(C)(=O)=O)ccc1Nc1c2ccc(N)cc2nc2cc(N)ccc12 | -3.66 | > 3000 nM | – | – | – | – | –
4 | NS(=O)(=O)c1ccc(Nc2c3ccccc3nc3ccccc23)cc1 | -1.82 | > 3000 nM | 5000 nM | – | – | – | –
5 | CCCCCCN(C)c1ccc(Nc2c3ccc(Cl)cc3nc3ccc(OC)cc23)cc1 | 3.73 | 1800 nM | > 20000 nM | > 3000 nM | 4300 nM | > 3000 nM | –
6 | CCCCCCCc1ccc(Nc2c3ccccc3nc3ccccc23)cc1 | 3.99 | 800 nM | 13000 nM | – | – | – | –
7 | Nc1ccc2c(Nc3ccc(CN4CCCC4)cc3)c3ccc(N)cc3nc2c1 | – | > 3000 nM | > 20000 nM | – | – | – | –
8 | CN(C)Cc1ccc(Nc2c3ccc(N)cc3nc3cc(N)ccc23)cc1 | -2.61 | 5000 nM | 12000 nM | – | – | – | –
9 | CN(C)c1ccc(Nc2c3ccccc3nc3ccccc23)cc1 | 0.18 | 900 nM | 1000 nM | 3600 nM | 1300 nM | > 3000 nM | –
10 | CN(C)Cc1ccc(Nc2c3ccc(Cl)cc3nc3cc(Cl)ccc23)cc1 | 1.27 | 2000 nM | – | – | – | – | –
11 | COc1cc(NS(C)(=O)=O)ccc1Nc1c2ccc(N(C)C)cc2nc2cc(N(C)C)ccc12 | -0.84 | > 3000 nM | 3000 nM | – | – | – | –
12 | Nc1ccc2c(=Nc3ccc(S(N)(=O)=O)cc3)c3ccc(N)cc3[nH]c2c1 | -4.28 | > 3000 nM | – | – | – | – | –
13 | CNc1ccc(Nc2c3ccccc3nc3ccccc23)cc1 | -0.47 | 1500 nM | – | – | – | – | –
14 | NCCCCCCNS(=O)(=O)c1ccc(N=c2c3ccccc3[nH]c3ccccc23)cc1 | – | > 3000 nM | > 20000 nM | – | – | – | –
15 | CNc1ccc(Nc2c3ccccc3nc3ccccc23)cc1OC(C)C | – | 1300 nM | 8000 nM | – | – | – | 0.38 sigma pi
16 | c1ccc(Nc2c3ccccc3nc3ccccc23)cc1 | 0 | 2700 nM | 2700 nM | – | – | – | –
17 | Nc1ccc(Nc2c3ccccc3nc3ccccc23)cn1 | -2.74 | 3900 nM | 3600 nM | – | – | – | –
18 | CCN(C)c1ccc(Nc2c3ccccc3nc3ccccc23)cc1 | 0.68 | 1000 nM | 4000 nM | 4400 nM | 880 nM | 3300 nM | –
19 | CCCCCCN(C)c1ccc(Nc2c3ccccc3nc3ccccc23)cc1OC | 3.02 | 600 nM | 6500 nM | 1900 nM | 1800 nM | > 300 nM | –
20 | NCCNCCc1ccc(Nc2c3ccccc3nc3ccccc23)cc1 | – | 700 nM | 4000 nM | – | – | – | –
21 | CCCCCNCc1ccc(Nc2c3ccccc3nc3ccccc23)cc1 | – | 2000 nM | 1530 nM | – | – | – | –
22 | CCCCCCOc1ccc(Nc2c3ccccc3nc3ccccc23)cc1 | 2.87 | 1000 nM | 5000 nM | – | – | – | –
23 | CCN(C)c1ccc(Nc2c3ccccc3nc3ccccc23)cc1OC | 0.66 | > 3000 nM | 16500 nM | – | – | – | –
24 | CCN(CC)CCNc1ccc(Nc2c3ccccc3nc3ccccc23)cc1OC | 3.27 | 1600 nM | 1500 nM | – | – | – | –
25 | CNc1ccc(Nc2c3ccccc3nc3ccccc23)cc1OC | -0.49 | 3600 nM | 11000 nM | – | – | – | –
26 | COc1cc(NS(C)(=O)=O)ccc1Nc1c2ccccc2nc2ccccc12 [AMSACRINE] | -1.2 | 1500 nM | 200 nM | – | – | – | –

Now those with a lower IC50 (Leishmania major), led by results:

Row | Index [1] | IC50 (Leishmania major) | IC50 (Jurkat) | EC50 (Leishmania donovani) | EC50 (Trypanosoma brucei) | EC50 (Trypanosoma cruzi) | Liphophilicity [2] | SMILES
27 | 2.38 | 550 nM | 17000 nM | 12300 nM | 3900 nM | 2200 nM | – | CCCCCCNc1ccc(Nc2c3ccccc3nc3ccccc23)cc1
28 | 2 | 550 nM | > 15000 nM | – | – | – | – | c1ccc2c(Nc3ccc(NC4CCCCC4)cc3)c3ccccc3nc2c1
29 | 3.71 | 500 nM | > 20000 nM | 3200 nM | 600 nM | 9300 nM | – | CCCCCCNc1ccc(Nc2c3ccc(Cl)cc3nc3ccc(OC)cc23)cc1OC
30 | 1.8 | 450 nM | 5000 nM | – | – | – | – | c1ccc2c(Nc3ccc(NC4CCCC4)cc3)c3ccccc3nc2c1
31 | 1.18 | 400 nM | 1000 nM | 760 nM | > 300 nM | > 3000 nM | – | CCN(CC)c1ccc(Nc2c3ccccc3nc3ccccc23)cc1
32 | 2.36 | 400 nM | 3500 nM | 1200 nM | 650 nM | 1800 nM | – | CCCCCCNc1ccc(Nc2c3ccccc3nc3ccccc23)cc1OC
33 | 3.56 | 350 nM | 2000 nM | > 10000 nM | 1460 nM | > 10000 nM | – | CCCCN(CCCC)c1ccc(Nc2c3ccccc3nc3ccccc23)cc1
34 | 3.04 | 300 nM | 3000 nM | 1200 nM | 330 nM | > 1000 nM | – | CCCCCCN(C)c1ccc(Nc2c3ccccc3nc3ccccc23)cc1
35 | 4.22 | 300 nM | < 1000 nM | – | – | – | – | CCN(CC)CCCc1ccc(Nc2c3ccccc3nc3ccccc23)cc1
36 | 6.2 | 240 nM | 6500 nM | 1350 nM | > 300 nM | > 3000 nM | – | CCCCCCN(CCCCCC)c1ccc(Nc2c3ccccc3nc3ccccc23)cc1
37 | 3.07 | 200 nM | 4000 nM | 4000 nM | > 300 nM | > 10000 nM | – | CCCCCCNc1ccc(Nc2c3ccc(Cl)cc3nc3ccc(OC)cc23)cc1
38 | 2.24 | 200 nM | 1500 nM | > 10000 nM | 370 nM | 2500 nM | – | CCCN(CCC)c1ccc(Nc2c3ccccc3nc3ccccc23)cc1
39 | 3.29 | 200 nM | 1300 nM | – | – | – | – | CCN(CC)CCCNc1ccc(Nc2c3ccccc3nc3ccccc23)cc1
40 | – | 200 nM | 2000 nM | – | – | – | – | c1ccc2c(Nc3ccc(CN4CCCC4)cc3)c3ccccc3nc2c1
41 | 2.74 | 160 nM | 1750 nM | 250 nM | 200 nM | > 3000 nM | – | CCCCCCNc1ccc(Nc2c3ccc(N(C)C)cc3nc3cc(N(C)C)ccc23)cc1
42 | 4.88 | 160 nM | 2300 nM | > 90000 nM | 200 nM | > 300 nM | – | CCCCCN(CCCCC)c1ccc(Nc2c3ccccc3nc3ccccc23)cc1
43 | 3.4 | 70 nM | 1750 nM | 30 nM | > 300 nM | 120 nM | – | CCCCCCN(C)c1ccc(Nc2c3ccc(N(C)C)cc3nc3cc(N(C)C)ccc23)cc1
44 | 0.36 | 30 nM | – | – | – | – | – | CN(C)c1ccc2c(Nc3ccccc3)c3ccc(N(C)C)cc3nc2c1
